From patent US4450269A, “Mono-5-substituted-3-chloro-4H-1,2,6-thiadiazin-4-one antifungal agents” (FMC Corporation, priority 1980, dated 1984)
Where two headings read alike, the source gives them in different places.

How the values were obtained:
Erysiphe polygoni = assay: Spore germination test; type: cell-based; conditions: EP, 48 hours
In short: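 Compound in acetone was mixed into water agar at final 40, 10, 2.5 and 1 ppm and poured into quadrant dishes. Quadrants received spore suspension, while Erysiphe polygoni and Uromyces phaseoli spores were brushed on from infected leaves. After 48 h at 24 °C, the percentage of germinated spores was converted to a germination rating.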

Pyricularia oryzae = type: cell-based; conditions: PO, 48 hours
Phytophthora infestans = assay: whole plant or invertebrate; type: in vivo; conditions: for Percent Disease Control, foliar, tomato late blight: 150 ppm, protective; for pest or weed control at 150 ppm: Phytophthora infestans, in Solanum lycopersicum, foliar, read-out: Percent Disease Control, foliar, tomato late blight, 150 ppm, protective

3-chloro-5-(bromophenoxy)-4H-1,2,6-thiadiazin-4-one [Compound 33]
Spore Germination Rating (Erysiphe polygoni; 1.0 ppm): 0 (0-10)
Spore Germination Rating (Erysiphe polygoni; 2.5 ppm): 0 (0-10)
Spore Germination Rating (Erysiphe polygoni; 10 ppm): 0 (0-10)
Spore Germination Rating (Erysiphe polygoni; 40 ppm): 0 (0-10)
Spore Germination Rating (Pyricularia oryzae; 1.0 ppm): 2 (40-60)
Spore Germination Rating (Pyricularia oryzae; 2.5 ppm): 0 (0-10)
Spore Germination Rating (Pyricularia oryzae; 10 ppm): 0 (0-10)
Spore Germination Rating (Pyricularia oryzae; 40 ppm): 0 (0-10)
Percent Disease Control, foliar, tomato late blight (Phytophthora infestans): 0%

Cc1cc(Oc2nsnc(Cl)c2=O)ccc1Cl [Compound 54, 3-chloro-5-(4-chloro-3-methylphenoxy)-4H--1,2,6-thiadiazin-4-one]
Spore Germination Rating (Erysiphe polygoni; 1.0 ppm): 2 (40-60)
Spore Germination Rating (Erysiphe polygoni; 2.5 ppm): 0 (0-10)
Spore Germination Rating (Erysiphe polygoni; 10 ppm): 0 (0-10)
Spore Germination Rating (Erysiphe polygoni; 40 ppm): 0 (0-10)
Spore Germination Rating (Pyricularia oryzae; 1.0 ppm): 0 (0-10)
Spore Germination Rating (Pyricularia oryzae; 2.5 ppm): 0 (0-10)
Spore Germination Rating (Pyricularia oryzae; 10 ppm): 0 (0-10)
Spore Germination Rating (Pyricularia oryzae; 40 ppm): 0 (0-10)
pest or weed control at 150 ppm (Phytophthora infestans): 0%

Cc1cccc(C)c1Oc1nsnc(Cl)c1=O [Compound 24, 3-chloro-5-(2,6-dimethylphenoxy)-4H--1,2,6-thiadiazin-4-one]
Spore Germination Rating (Erysiphe polygoni; 1.0 ppm): 3 (60-80)
Spore Germination Rating (Erysiphe polygoni; 2.5 ppm): 1 (10-40)
Spore Germination Rating (Erysiphe polygoni; 10 ppm): 0 (0-10)
Spore Germination Rating (Erysiphe polygoni; 40 ppm): 0 (0-10)
Spore Germination Rating (Pyricularia oryzae; 1.0 ppm): 3 (60-80)
Spore Germination Rating (Pyricularia oryzae; 2.5 ppm): 0 (0-10)
Spore Germination Rating (Pyricularia oryzae; 10 ppm): 0 (0-10)
Spore Germination Rating (Pyricularia oryzae; 40 ppm): 0 (0-10)
pest or weed control at 150 ppm (Phytophthora infestans): 98%

CC(=O)c1ccccc1Oc1nsnc(Cl)c1=O [Compound 49, 3-(2-acetylphenoxy)-5-chloro-4H--1,2,6-thiadiazin-4-one]
Spore Germination Rating (Erysiphe polygoni; 1.0 ppm): 4 (80-100)
Spore Germination Rating (Erysiphe polygoni; 2.5 ppm): 4 (80-100)
Spore Germination Rating (Erysiphe polygoni; 10 ppm): 2 (40-60)
Spore Germination Rating (Erysiphe polygoni; 40 ppm): 2 (40-60)
Spore Germination Rating (Pyricularia oryzae; 1.0 ppm): 2 (40-60)
Spore Germination Rating (Pyricularia oryzae; 2.5 ppm): 1 (10-40)
Spore Germination Rating (Pyricularia oryzae; 10 ppm): 0 (0-10)
Spore Germination Rating (Pyricularia oryzae; 40 ppm): 0 (0-10)
pest or weed control at 150 ppm (Phytophthora infestans): 90%

O=c1c(Cl)nsnc1Oc1cccc(Cl)c1Cl [Compound 19, 3-chloro-5-(2,3-dichlorophenoxy)-4H--1,2,6-thiadiazin-4-one]
Spore Germination Rating (Erysiphe polygoni; 1.0 ppm): 3 (60-80)
Spore Germination Rating (Erysiphe polygoni; 2.5 ppm): 1 (10-40)
Spore Germination Rating (Erysiphe polygoni; 10 ppm): 0 (0-10)
Spore Germination Rating (Erysiphe polygoni; 40 ppm): 0 (0-10)
Spore Germination Rating (Pyricularia oryzae; 1.0 ppm): 3 (60-80)
Spore Germination Rating (Pyricularia oryzae; 2.5 ppm): 0 (0-10)
Spore Germination Rating (Pyricularia oryzae; 10 ppm): 0 (0-10)
Spore Germination Rating (Pyricularia oryzae; 40 ppm): 0 (0-10)
pest or weed control at 150 ppm (Phytophthora infestans): 0%

O=c1c(Cl)nsnc1Oc1ccc(Cl)cc1Cl [Compound 17, 3-chloro-5-(2,4-dichlorophenoxy)-4H--1,2,6-thiadiazin-4-one]
Spore Germination Rating (Erysiphe polygoni; 1.0 ppm): 3 (60-80)
Spore Germination Rating (Erysiphe polygoni; 2.5 ppm): 1 (10-40)
Spore Germination Rating (Erysiphe polygoni; 10 ppm): 0 (0-10)
Spore Germination Rating (Erysiphe polygoni; 40 ppm): 0 (0-10)
Spore Germination Rating (Pyricularia oryzae; 1.0 ppm): 0 (0-10)
Spore Germination Rating (Pyricularia oryzae; 2.5 ppm): 0 (0-10)
Spore Germination Rating (Pyricularia oryzae; 10 ppm): 0 (0-10)
Spore Germination Rating (Pyricularia oryzae; 40 ppm): 0 (0-10)
pest or weed control at 150 ppm (Phytophthora infestans): 100%

O=c1c(Cl)nsnc1Oc1cc(Cl)cc(Cl)c1 [Compound 20, 3-chloro-5-(3,5-dichlorophenoxy)-4H--1,2,6-thiadiazin-4-one]
Spore Germination Rating (Erysiphe polygoni; 1.0 ppm): 3 (60-80)
Spore Germination Rating (Erysiphe polygoni; 2.5 ppm): 0 (0-10)
Spore Germination Rating (Erysiphe polygoni; 10 ppm): 0 (0-10)
Spore Germination Rating (Erysiphe polygoni; 40 ppm): 0 (0-10)
Spore Germination Rating (Pyricularia oryzae; 1.0 ppm): 1 (10-40)
Spore Germination Rating (Pyricularia oryzae; 2.5 ppm): 0 (0-10)
Spore Germination Rating (Pyricularia oryzae; 10 ppm): 0 (0-10)
Spore Germination Rating (Pyricularia oryzae; 40 ppm): 0 (0-10)
pest or weed control at 150 ppm (Phytophthora infestans): 0%

Nc1ccc(Oc2nsnc(Cl)c2=O)cc1 [Compound 26, 5-(4-aminophenoxy)-3-chloro-4H--1,2,6-thiadiazin-4-one]
Spore Germination Rating (Erysiphe polygoni; 1.0 ppm): 4 (80-100)
Spore Germination Rating (Erysiphe polygoni; 2.5 ppm): 4 (80-100)
Spore Germination Rating (Erysiphe polygoni; 10 ppm): 4 (80-100)
Spore Germination Rating (Erysiphe polygoni; 40 ppm): 4 (80-100)
Spore Germination Rating (Pyricularia oryzae; 1.0 ppm): 4 (80-100)
Spore Germination Rating (Pyricularia oryzae; 2.5 ppm): 2 (40-60)
Spore Germination Rating (Pyricularia oryzae; 10 ppm): 0 (0-10)
Spore Germination Rating (Pyricularia oryzae; 40 ppm): 0 (0-10)
Percent Disease Control, foliar, tomato late blight (Phytophthora infestans): 0%

O=c1c(Cl)nsnc1Oc1ccc([N+](=O)[O-])cc1 [Compound 9, 3-chloro-5-(4-nitrophenoxy)-4H--1,2,6-thiadiazin-4-one]
Spore Germination Rating (Erysiphe polygoni; 1.0 ppm): 4 (80-100)
Spore Germination Rating (Erysiphe polygoni; 2.5 ppm): 4 (80-100)
Spore Germination Rating (Erysiphe polygoni; 10 ppm): 4 (80-100)
Spore Germination Rating (Erysiphe polygoni; 40 ppm): 4 (80-100)
Spore Germination Rating (Pyricularia oryzae; 1.0 ppm): 0 (0-10)
Spore Germination Rating (Pyricularia oryzae; 2.5 ppm): 0 (0-10)
Spore Germination Rating (Pyricularia oryzae; 10 ppm): 0 (0-10)
Spore Germination Rating (Pyricularia oryzae; 40 ppm): 0 (0-10)
pest or weed control at 150 ppm (Phytophthora infestans): 90%

Cc1cc(Oc2nsnc(Cl)c2=O)cc(C)c1Br [Compound 60, 3-[(4-bromo-3,5-dimethyl)-phenoxy]-5-chloro-4H--1,2,6-thiadiazin-4-one]
Spore Germination Rating (Erysiphe polygoni; 1.0 ppm): 2 (40-60)
Spore Germination Rating (Erysiphe polygoni; 2.5 ppm): 1 (10-40)
Spore Germination Rating (Erysiphe polygoni; 10 ppm): 1 (10-40)
Spore Germination Rating (Erysiphe polygoni; 40 ppm): 0 (0-10)
Spore Germination Rating (Pyricularia oryzae; 1.0 ppm): 0 (0-10)
Spore Germination Rating (Pyricularia oryzae; 2.5 ppm): 0 (0-10)
Spore Germination Rating (Pyricularia oryzae; 10 ppm): 0 (0-10)
Spore Germination Rating (Pyricularia oryzae; 40 ppm): 0 (0-10)
pest or weed control at 150 ppm (Phytophthora infestans): 0%

O=c1c(Cl)nsnc1Oc1ccc(Br)cc1 [Compound 15, 3-chloro-5-(4-bromophenoxy)-4H--1,2,6-thiadiazin-4-one]
Spore Germination Rating (Erysiphe polygoni; 1.0 ppm): 4 (80-100)
Spore Germination Rating (Erysiphe polygoni; 2.5 ppm): 1 (10-40)
Spore Germination Rating (Erysiphe polygoni; 10 ppm): 0 (0-10)
Spore Germination Rating (Erysiphe polygoni; 40 ppm): 0 (0-10)
Spore Germination Rating (Pyricularia oryzae; 1.0 ppm): 0 (0-10)
Spore Germination Rating (Pyricularia oryzae; 2.5 ppm): 1 (10-40)
Spore Germination Rating (Pyricularia oryzae; 10 ppm): 0 (0-10)
Spore Germination Rating (Pyricularia oryzae; 40 ppm): 0 (0-10)
pest or weed control at 150 ppm (Phytophthora infestans): 100%
